The values that follow are results of earlier work, collected in patent US20050148593A1, “Compounds, compositions, and methods” (priority 2003, published 2005).

This data set concerns A549 cells. Particulars: data provided by National Cancer Institute, Developmental Therapeutic Program.

As a reminder, the GI50 is the concentration giving 50% growth inhibition. Consider `O=c1[nH]cc(F)c(=O)[nH]1` [5-fluorouracil], for which the GI50 was 1000 nM.
Regarding `COc1cccc2c1C(=O)c1c(O)c3c(c(O)c1C2=O)C[C@@](O)(C(=O)CO)C[C@@H]3O[C@H]1C[C@H](N)[C@H](O)[C@H](C)O1` [doxorubicin], the GI50 is 63 nM.
Consider `CC(=O)O[C@H]1C(=O)[C@@]2(C)[C@H]([C@H](OC(=O)c3ccccc3)[C@]3(O)C[C@H](OC(=O)[C@H](O)[C@@H](NC(=O)c4ccccc4)c4ccccc4)C(C)=C1C3(C)C)[C@]1(OC(C)=O)CO[C@@H]1C[C@@H]2O` [paclitaxel], for which the GI50 is 4 nM.
On to `NC(=O)NO` [hydroxyurea], for which the GI50 was 500000 nM.
